Values quoted from earlier work in US11246867B2, “Pharmaceutical composition comprising pimobendan” (Ceva Sante Animale, priority 2015, dated 2022).

Conditions: pH 5

COc1ccc(-c2nc3ccc(C4=NNC(=O)CC4C)cc3[nH]2)cc1 (stereo not shown) [pimobendan, 4,5-dihydro-6-[2-(4-methoxyphenyl)-1H-benzimidazol-5-yl]-5-methyl-3(2H)-pyridazone]
solubility in water: about 1 mg/liter
